Experimental data from patent publication US7112584B2, “Nonsteroidal antiinflammatory agents” (Schering AG, priority 2002, dated 2006).
Like-named read-outs stand apart in the source and are kept apart here.

Columns and labels:
[1] = test system: secretion of cytokine IL-8 in human monocyte cell line THP-1; assay: inhibition of LPS-triggered IL-8 secretion in THP-1 cells (ELISA); format: cell-based; parameters: Inhibition of IL-8 Secretion Efficacy: concentration or dose not given beside the values; settings: THP-1, LPS-triggered
Protocol: The concentration of the cytokines was determined in the supernatant with use of commercially available ELISA kits.
The potency of the inflammation inhibition is determined by the inhibition of the secretion of cytokine IL-8 in a cellular test. […] The concentration of the cytokine was determined in the supernatant by commercially available ELISA kits. In this connection, the compounds of formula I show a high to very high potency and action (>50%) in the inhibition (see Table 4). The potency of the racemates is considerably lower than that of the pure enantiomers.

[2] = molecular target: T1, GR (IL-6 promoter) (Homo sapiens, UniProt P04150); assay: reporter gene test in HeLa cells, transrepression, IL-6 promoter-luciferase; settings: for Emax: HeLa, read-out: Transrepression (TR)(IL-6-Promoter) Efficacy
T1 sequence (P04150 1-777): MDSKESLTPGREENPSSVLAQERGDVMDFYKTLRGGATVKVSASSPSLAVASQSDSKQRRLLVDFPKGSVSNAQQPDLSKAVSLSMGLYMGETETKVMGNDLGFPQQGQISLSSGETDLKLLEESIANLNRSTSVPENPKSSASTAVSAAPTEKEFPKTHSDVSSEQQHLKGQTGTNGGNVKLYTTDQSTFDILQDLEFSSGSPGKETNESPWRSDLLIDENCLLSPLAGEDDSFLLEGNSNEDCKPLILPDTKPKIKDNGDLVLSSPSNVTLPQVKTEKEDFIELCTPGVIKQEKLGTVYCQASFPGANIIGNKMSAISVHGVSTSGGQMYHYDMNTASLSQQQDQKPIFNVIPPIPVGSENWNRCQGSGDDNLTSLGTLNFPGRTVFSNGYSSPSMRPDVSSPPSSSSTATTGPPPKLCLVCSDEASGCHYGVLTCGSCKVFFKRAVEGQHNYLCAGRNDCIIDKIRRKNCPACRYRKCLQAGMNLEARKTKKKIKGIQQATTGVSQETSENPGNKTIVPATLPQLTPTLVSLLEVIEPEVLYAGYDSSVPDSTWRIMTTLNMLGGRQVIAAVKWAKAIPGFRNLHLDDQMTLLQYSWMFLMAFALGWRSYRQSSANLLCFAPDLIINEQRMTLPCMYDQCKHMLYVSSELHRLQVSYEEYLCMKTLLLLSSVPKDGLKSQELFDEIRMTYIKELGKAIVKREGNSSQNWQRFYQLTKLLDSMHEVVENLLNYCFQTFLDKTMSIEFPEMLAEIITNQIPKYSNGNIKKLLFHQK
Protocol: (§1) The MMTV promoter (transactivation) and the IL-6 promoter (transrepression) in each case were upstream to the gene that codes for the luciferase. By means of the photometric determination of the enzyme activity of the luciferase, it was possible to measure the activation of the transcription (MMTV-promoter-construct) or the inhibition of the transcription (IL-6-promoter-construct) by the GR.
(§2) This dissociation of the mechanisms of action was determined with the aid of the reporter gene test in stable transfixed human HeLa cells. To determine the transactivation induced by the GR, the MMTV promoter, which is set before a luciferase gene, is used. Via the photometric determination of the luciferase activity, it was possible to determine the transactivation activities of the GR after binding the test compounds. The inhibition of the transcription of the luciferase gene, induced by tetradecanoyl-phorbol acetate (TPA) under the control of the IL-6 promoter or the collagenase promoter (transpression) by the GR after binding the test substances, was also determined by the measurement of luciferase activity in HeLa cells.

[3] = molecular target: T2, human GR (Homo sapiens, UniProt P04150); assay: glucocorticoid receptor (GR) binding test, cytosol of Sf9 cells, [3H]-dexamethasone; settings: human GR from Sf9 cytosol
T2 construct: made in house; host or cells: Sf9 cells infected with recombinant baculovirus (cytosol preparation)
T2 sequence (P04150 1-777): T1 sequence (P04150 1-777)
Description: The binding of substances to the glucocorticoid receptor (GR) is examined with the aid of a recombinantly produced receptor. Cytosol preparations of Sf9 cells, which had been infected with recombinant baculoviruses, which code for the GR, are used for the binding studies.

[4] = molecular target: T3, GR (MMTV promoter) (Homo sapiens, UniProt P04150); assay: reporter gene test in HeLa cells, transactivation, MMTV promoter-luciferase; settings: for TA:TR EC50:IC50: MMTV promoter EC50 : IL-6 promoter IC50
T3 sequence (P04150 1-777): T1 sequence (P04150 1-777)
Protocol: as §1, §2

[5] = molecular target: T4, GR (collagenase promoter) (Homo sapiens, UniProt P04150); assay: reporter gene test in HeLa cells, transrepression, collagenase promoter-luciferase; format: cell-based; settings: TPA-induced; for IC50: read-out: Transrepression (TR)(Collagenase Promoter) IC50
T4 construct: endogenous in cells; host or cells: HeLa cells stably transfected with promoter-luciferase reporters (MMTV, IL-6 or collagenase promoter)
T4 sequence (P04150 1-777): T1 sequence (P04150 1-777)

[6] = test system: tyrosinamino transferase (TAT); assay: induction of tyrosinamino transferase (TAT) in liver homogenates; format: in vivo; settings: mice, 8 hours after administration, vs untreated control
Description: One of the most frequent undesirable effects of a glucocorticoid therapy is the so-called “steroid diabetes” [cf. Hatz, H. J., Glucocorticoide: Immunologische Grundlagen, Pharmakologie und Therapierichtlinien [Glucocorticoids: Immunological Bases, Pharmacology and Therapy Guidelines], Wissenschaftliche Verlagsgesellschaft mbH, Stuttgart, 1998]. The reason for this is the stimulation of the gluconeogenesis in the liver by induction of the enzymes that are responsible for this effect and by free amino acids, which develop from the degradation of proteins (catabolic action of glucocorticoids). A key enzyme of the catabolic metabolism in the liver is the tyrosinamino transferase (TAT). The activity of this enzyme can be determined photometrically from liver homogenates and represents a good yardstick of the undesirable metabolic actions of the glucocorticoids. To measure the TAT induction, the animals are sacrificed 8 hours after the test substances are administered, the livers are removed, and the TAT activity in the homogenate is measured.
As parameters for the side effects of the catabolic metabolism induced by steroids, the activity of the enzyme tyrosinamino transferase (TAT) was determined by photometry from liver homogenates. The activity represents a good yardstick for the undesirable catabolic actions of the glucocorticoids. To measure the TAT induction, the animals (mice and rats) are killed 8 hours after the test substance is administered, the liver is removed, and the TAT activity is measured in the homogenates.

[7] = test system: croton oil-induced inflammation; assay: croton oil-induced ear inflammation, edema formation in mice; format: in vivo; settings: systemic, two hours before croton oil, ear weight
Protocol: The antiinflammatory actions of the compounds of general formula I were tested in the animal experiment by tests in the croton oil-induced inflammation in rats and mice (J. Exp. Med. (1995), 182, 99–108). In this connection, croton oil in ethanolic solution was administered topically to the animals' ears. The test substances were also administered topically or systemically simultaneously with or two hours before the croton oil. After 16–24 hours, the ear weight was measured as a yardstick of the inflammatory edema, the peroxidase activity was measured as a yardstick of the invasions of granuloctyes, and the elastase activity was measured as a yardstick of the invasion of neutrophilic granuloctyes.
The antiinflammatory action of the compounds of general formula I were tested in an animal experiment in croton oil-induced inflammation in mice and in rats (J. Exp. Med. (1995), 182, 99–108). In this connection, croton oil in ethanolic solution was administered topically to the animals' ears. The test substances were systemically administered for two hours before the croton oil. After 16–24 hours, the ear weight was measured as a yardstick for the inflammatory edema.

[8] = HeLa cells, TPA-induced, luciferase
[9] = read-out: Transrepression (TR)(IL-6-Promoter) IC50, HeLa cells, TPA-induced, luciferase
[10] = read-out: Transactivating (TA)(MMTV-Promoter) EC50, HeLa cells, luciferase

Compound | Inhibition of IL-8 Secretion Efficacy [1] | IC50 [2] | Emax [2] | Transrepression (TR)(IL-6-Promoter) Efficacy [2, 8] | IC50 [2, 9] | Transactivating (TA)(MMTV-Promoter) Efficacy ([4]; HeLa cells, luciferase) | further results
Cc1noc(=O)c2ccc(NC(=O)C(O)(CC3(c4cccc5c4OCO5)CC3)C(F)(F)F)cc12 (racemic) [Example 3] | 53% | 5.9 nM | 66% |  |  |  | IC50 ([1]; Homo sapiens): 39 nM
Cc1noc(=O)c2ccc(NC(=O)C(O)(CC3(c4cccc5c4OCC5)CCC3)C(F)(F)F)cc12 (racemic) [Example 14] | 61% |  |  | 85% | 4.2 nM |  | IC50 [1]: 71 nM
COc1c(F)cccc1C1(CC(O)(C(=O)Nc2ccc3c(=O)onc(C)c3c2)C(F)(F)F)CCC1 (racemic) [Example 31] |  | 5.4 nM | 67% |  |  |  | IC50 [3]: 14 nM
Cc1noc(=O)c2ccc(NC(=O)C(O)(CC3(c4cccc5c4OCC5)CCC3)C(F)(F)F)cc12 (single isomer, unassigned) [Example 15] | 74% |  |  | 74% | 1.5 nM |  | IC50 [1]: 7.5 nM
CCc1noc(=O)c2ccc(NC(=O)C(O)(CC3(c4cccc5c4OCC5)CCC3)C(F)(F)F)cc12 (single isomer, unassigned) [Example 17] |  |  |  | 73% | 4.6 nM | 50% | TA:TR EC50:IC50 [4]: 8.7; EC50 [4, 10]: 40 nM
Cc1noc(=O)c2ccc(NC(=O)C(O)(CC(C)(C)c3cc(F)cc4c3OCO4)C(F)(F)F)cc12 (single isomer, unassigned) [Example 19] |  | 3.8 nM | 91% |  |  |  | 
Cc1noc(=O)c2ccc(NC(=O)C(O)(CC(C)(C)c3cccc4ccoc34)C(F)(F)F)cc12 (single isomer, unassigned) [Example 23] |  |  |  | 78% | 1.6 nM | 76% | Transrepression (TR)(Collagenase Promoter) Efficacy [5]: 78%; IC50 [5]: 4.9 nM; Induction Factor for TAT with 3 mg/kg [6]: 1.1; Induction Factor for TAT with 30 mg/kg [6]: 1.0; TA:TR EC50:IC50 [4]: 6.2; EC50 [4, 10]: 10 nM
Cc1noc(=O)c2ccc(NC(=O)C(O)(CC3(c4cccc(F)c4O)CCC3)C(F)(F)F)cc12 (single isomer, unassigned) [Example 33] |  | 2.2 nM | 80% |  |  | 76% | EC50 [4]: 49 nM; TA:TR EC50:IC50 [4]: 22.3
Cc1noc(=O)c2ccc(NC(=O)C(O)(CC3(c4cccc5c4OCO5)CC3)C(F)(F)F)cc12 (single isomer, unassigned; (+)) [Example 4] | 62% |  |  | 80% | 1.5 nM |  | IC50 [1]: 29 nM
Cc1noc(=O)c2ccc(NC(=O)C(O)(CC(C)(C)c3cc(Br)ccc3O)C(F)(F)F)cc12 (single isomer, unassigned; (+)) [Example 7, (+)-6-[4-(5-Bromo-2-hydroxyphenyl)-2-hydroxy-4-methyl-2-(trifluoromethyl)valeroylamino]-4-methyl-2,3-benzoxazin-1-one] |  |  |  |  |  |  | Induction Factor for TAT with 3 mg/kg [6]: 1.2; Induction Factor for TAT with 30 mg/kg [6]: 2.4; Edema Inhibition with 3 mg/kg [7]: 22%; Edema Inhibition with 30 mg/kg [7]: 75%
CCc1noc(=O)c2ccc(NC(=O)C(O)(CC(C)(C)c3cccc4ccoc34)C(F)(F)F)cc12 (single isomer, unassigned; (+)) [Example 8, (+)-4-Ethyl-6-[4-(7-benzofuranyl)-2-hydroxy-4-methyl-2-trifluoromethylvaleroylamino]-2,3-benzoxazin-1-one] |  | 2.8 nM | 67% |  |  | 25% | EC50 [4]: 50 nM; TA:TR EC50:IC50 [4]: 17.8; Edema Inhibition with 3 mg/kg [7]: 33%; Edema Inhibition with 30 mg/kg [7]: 52%
C[C@@H]1C[C@H]2[C@@H]3CCC4=CC(=O)C=C[C@]4(C)[C@@]3(F)[C@@H](O)C[C@]2(C)[C@@]1(O)C(=O)CO [Dexamethasone, reference compound] |  |  |  | 100% |  | 100% | Transrepression (TR)(Collagenase Promoter) Efficacy [5]: 100%
C[C@]12C=CC(=O)C=C1CC[C@@H]1[C@@H]2[C@@H](O)C[C@@]2(C)[C@H]1CC[C@]2(O)C(=O)CO [Prednisolone, reference compound] | 92% |  | 94% |  |  |  | Transrepression (TR)(Collagenase Promoter) Efficacy [5]: 96%; Induction Factor for TAT with 3 mg/kg [6]: 2.6; Induction Factor for TAT with 30 mg/kg [6]: 8.0; Edema Inhibition with 3 mg/kg [7]: 35%; Edema Inhibition with 30 mg/kg [7]: 84%; IC50 ([1]; Homo sapiens): 18 nM
(+)-6-[3-(Benzo[1,3]dioxol-4-yl)-cyclobutyl-2-hydroxy-2-trifluoromethyl-propionyl-amino]-4-methyl-2,3-benzoxazin-1-one [Example 6] |  |  |  | 77% | 1.2 nM |  | Transrepression (TR)(Collagenase Promoter) Efficacy [5]: 95%; IC50 [5]: 2.6 nM
